One may read the GI50 as the concentration giving 50% growth inhibition. The low end stands for greater sensitivity of the cells, the high end for lower sensitivity of the cells.

Data on five compounds can be found in US10251860B2, “Compounds for bone healing” (University of Pittsburgh—Of the Commonwealth System of …, priority 2015, dated 2019).

The procedure of data set [1]:
(§1) Eppendorf vials (1.5 mL size) were charged with model compounds in excess. […] The vials were briefly vortexed and equilibrated in an end-over-end rotator at 30.0° C. for 20 hours.
as §1

In another data set the test system is Brine shrimp. In words: Brine shrimp toxicity assay. In kind it is in vivo. As to the method: General procedure for brine shrimp toxicity assays. Sample preparation. Stock solutions of 3 were prepared by dissolving 3 (50.0 mg) in 5.0 HPLC grade water (5.0 mL), (solution A) and 3 (2.50 g) in HPLC grade water (10.0 mL) (solution B). Stock solutions of DMSO were prepared by diluting DMSO (45 μL) with HPLC grade water (5.0 mL) (solution C) and DMSO (2.27 mL) with HPLC grade water (10.0 mL) (solution D).
In each case, 5 replicates were performed. Each replicate was performed in a 2 dram vial marked at the 4 and 5 mL volume points. To each vial was added artificial sea water (3 mL) followed by the appropriate volume of stock solution. For set 1 (1.0 mg/mL), solution A (0.500 mL) or solution C (0.500 mL) was added. For set 2 (5.0 mg/mL), solution B (0.100 mL) or solution D (0.100 mL) was added to each vial. For set 3 (20.0 mg/mL), solution B (0.400 mL) or solution D (0.400 mL) was added to each vial. For set 4 (50.0 mg/mL), solution B (1.00 mL) or solution D (1.00 mL) was added to each vial. Controls containing HPLC grade water (0.100 mL, 0.400 mL, and 1.00 mL) were prepared in the same manner, and five replicates of each control were prepared.
Brine shrimp eggs (San Francisco Bay Brand) were hatched in a commercial salt mixture (Instant Ocean). Constant aeration was provided using a pump and airstone, and illumination was maintained using a desk lamp. The shrimp were collected in a separate tank after 48 hours and used within 3-4 hours of collection.
Brine shrimp were added to each vial using a plastic transfer pipet. After the shrimp were transferred, artificial sea-water was added until the volume reached the 5-mL mark. One drop of a yeast suspension prepared by suspending 11 mg yeast in sea-water (20 mL) was added to each vial. The shrimp were counted at t=24 hours. Another drop of freshly prepared yeast solution (6 mg in 10 mL sea water) was added, the vials were maintained under illumination, and shrimp were counted at t=48 hours.

The subject of data set [2] is breast cancer cell line (MDA-MB-231). In kind it is cell-based. The text has this:
(§2) The cellular toxicity of sulfoxide 3 was further determined for a breast cancer cell line (MDA-MB-231) and a liver cell line (HepG2).

The next data set concerns liver cell line (HepG2). In kind it is cell-based.
Source text: as §2

Data set [3] can be described thus: Water absorption of compound storage media (Karl Fischer titration). Conditions: for Water content at t = 7 d: room temperature, pierced septum. The data set is classed as physicochemical. As to the method:
General procedure for calculation of water absorption. Oven-dried flasks capped with septa were cooled under a N2 atmosphere and charged with a volume of the appropriate solutions (DMSO, 3.0 mL; NMP, 600 μL; 25% 3/NMP, 600 μL). The water content was determined by Karl Fischer titration using about 100 μL aliquots (t=0 measurement). Each septum was pierced with a 1.5 inch 18 gauge needle and left to stand at room temperature for 7 days. The water content was measured at the end of this period (t=7 d measurement) by Karl Fischer titration. All measurements were made in duplicate. Results and Discussion.

For data set [4] the following is noted: reported value; cited from earlier work.

For the compound `COc1cc(/C=C/C(=O)CC(=O)/C=C/c2ccc(O)c(OC)c2)ccc1O` [Compound 7, curcumin], in data set [1], the “effect of addition of sulfoxide 3 on aqueous solubility” value (“effect” for short) is “increased the aqueous solubility”.

Take `COC(=O)Nc1nc2ccccc2[nH]1` [Compound 10, carbendazim]: the “effect” value in data set [1] is recorded as “increased the aqueous solubility”.

Consider `COC1=CC(=O)C[C@@H](C)[C@]12Oc1c(Cl)c(OC)cc(OC)c1C2=O` [Compound 11, griseofulvin], for which the “effect” value in data set [1] was “increased the aqueous solubility”.

Consider `C[S+](C)[O-]` [DMSO, dimethyl sulfoxide, reference compound], for which the “% Mortality after 24 h” value with Brine shrimp (1 mg/mL), in the data set with Brine shrimp (5 mg/mL), with Brine shrimp (20 mg/mL) and in the data set with Brine shrimp (50 mg/mL) was 0% each time. The “% Mortality after 48 h” value is 0-10% in the data set with Brine shrimp (1 mg/mL), 0-6% with Brine shrimp (5 mg/mL), 0% in the data set on Brine shrimp (20 mg/mL) and 15% in the data set with Brine shrimp (50 mg/mL). For the same compound, in the data set on Brine shrimp (same concentrations (1-50 mg/mL)), the “mortality after 24 h” value is “no mortality”. The GI50 (in data set [2]; with liver cell line (HepG2)) was approximately 800 mM throughout. The “Water content at t = 0” value worked out at 160 ppm in data set [3] (first vessel) and 170 ppm in data set [3] (second vessel). Also, the figures for the “Water content at t = 7 d” value in data set [3] (first vessel) and in data set [3] (second vessel) were 1080 ppm and 1130 ppm, respectively. Also, the “reported log P” value in data set [4] is recorded as −1.3.

For `CN1CCCC1=O` [NMP, N-methyl-2-pyrrolidone], in data set [3] (first vessel), the “Water content at t = 0” value came to 150 ppm and the “Water content at t = 7 d” value is recorded as 12,090 ppm. Further, in data set [3] (second vessel), the “Water content at t = 0” value amounted to 130 ppm and the “Water content at t = 7 d” value is recorded as 17,000 ppm.
